In one assay the target is human recombinant BACE1 (Homo sapiens (Human), UniProt P56817). Description: In vitro enzymatic BACE1 FRET assay. The note with it: read-out: IC50 IP (μM) BACE1 enzyme. It is filed as biochemical. Put shortly: (§1)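 Protease purified by Ni-NTA chromatography; start with FRET substrate (50 nM); incubate 1 h; quench with Tris to neutral pH; read fluorescence ex 488 / em 590 nm.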

For the next assay, the target named is Recombinant Cat D (Homo sapiens (Human), UniProt P07339). Description: In vitro enzymatic Cathepsin D (Cat D) FRET assay. It is filed as biochemical. The following applies: read-out: IC50 IP (μM) CatD. Put shortly: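 Recombinant Cat D expressed in CHO cells, assayed in 0.05 M citrate pH 3.5 with 5 mM CHAPS and 10% DMSO final. Reaction started with 20 nM FRET peptide substrate, incubated one hour, then stopped by Tris buffer to neutral pH; fluorescence read at ex 500/em 580 nm.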

Assay [1] deals with Aβ40 in conditioned medium of cells stably expressing Amyloid Precursor Protein (APP). Put plainly: In vitro BACE-1 cell-based assay (Aβ40 sandwich ELISA). The following applies: read-out: IC50 IP (μM) BACE1 cell. In short, it runs like this: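 APP-expressing cells treated 24 h at 37 °C with compound in 10-point dose response (top 100 μM or 10 μM, 0.1% DMSO final). Secreted Aβ40 in conditioned medium quantified by sandwich ELISA (pAb40 capture, biotinylated 6E10 detection, time-resolved europium fluorescence); IC50 from percent inhibition versus concentration.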

The target in another assay is human recombinant BACE2 (Homo sapiens (Human), UniProt Q9Y5Z0). Put plainly: In vitro enzymatic BACE2 FRET assay. It is filed as biochemical. The note with it: read-out: IC50 IP (μM) BACE2 enzyme. In short, it runs like this: as §1

Bounds are passed on as bounds.

Sequence of human recombinant BACE2 (Q9Y5Z0 63-518): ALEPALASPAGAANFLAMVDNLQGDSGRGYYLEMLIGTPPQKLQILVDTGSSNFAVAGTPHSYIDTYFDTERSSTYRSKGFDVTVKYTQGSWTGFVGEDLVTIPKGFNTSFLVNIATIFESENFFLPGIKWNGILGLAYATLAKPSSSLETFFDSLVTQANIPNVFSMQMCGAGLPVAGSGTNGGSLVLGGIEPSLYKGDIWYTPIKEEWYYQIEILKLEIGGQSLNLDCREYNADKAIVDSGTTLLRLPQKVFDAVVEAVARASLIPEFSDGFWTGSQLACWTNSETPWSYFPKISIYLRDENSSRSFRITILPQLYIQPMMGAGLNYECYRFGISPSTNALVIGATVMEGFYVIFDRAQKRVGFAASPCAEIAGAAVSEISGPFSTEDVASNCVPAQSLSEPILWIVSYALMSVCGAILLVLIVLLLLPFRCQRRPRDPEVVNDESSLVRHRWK
Sequence of human recombinant BACE1 (P56817 46-501): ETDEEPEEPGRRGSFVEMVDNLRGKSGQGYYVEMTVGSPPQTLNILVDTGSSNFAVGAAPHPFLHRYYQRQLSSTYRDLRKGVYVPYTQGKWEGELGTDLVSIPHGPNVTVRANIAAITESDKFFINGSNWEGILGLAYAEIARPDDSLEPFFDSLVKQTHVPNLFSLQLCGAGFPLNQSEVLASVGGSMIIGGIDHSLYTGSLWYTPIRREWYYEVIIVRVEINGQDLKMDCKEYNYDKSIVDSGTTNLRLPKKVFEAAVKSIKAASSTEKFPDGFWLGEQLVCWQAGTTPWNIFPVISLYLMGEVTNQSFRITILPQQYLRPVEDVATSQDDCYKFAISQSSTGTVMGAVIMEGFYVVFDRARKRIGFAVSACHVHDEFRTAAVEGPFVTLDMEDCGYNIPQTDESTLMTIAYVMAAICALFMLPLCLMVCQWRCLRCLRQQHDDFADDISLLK
Sequence of Recombinant Cat D (P07339 65-412): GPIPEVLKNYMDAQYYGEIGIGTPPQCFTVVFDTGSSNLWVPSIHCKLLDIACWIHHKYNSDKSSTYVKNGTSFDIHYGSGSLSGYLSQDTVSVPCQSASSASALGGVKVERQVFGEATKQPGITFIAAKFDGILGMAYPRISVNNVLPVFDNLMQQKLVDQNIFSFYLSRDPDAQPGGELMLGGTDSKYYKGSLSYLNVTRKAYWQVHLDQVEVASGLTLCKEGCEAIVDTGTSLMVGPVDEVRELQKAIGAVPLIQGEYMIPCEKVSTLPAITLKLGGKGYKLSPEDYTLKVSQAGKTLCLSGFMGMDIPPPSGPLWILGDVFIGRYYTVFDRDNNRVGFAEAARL

Consider `CNC(=O)[C@]12C[C@H]1[C@@](C)(c1cc(NC(=O)c3ccc(OCC(F)(F)F)cn3)cc(F)c1F)N=C(N)S2` [Example 700, (1S,5S,6S)-3-amino-5-(2,3-difluoro-5-(((5-(2,2,2-trifluoroethoxy)-2-pyridinyl)carbonyl)amino)phenyl)-N,5-dimethyl-2-thia-4-azabicyclo[4.1.0]hept-3-ene-1-carboxamide], for which the IC50 at human recombinant BACE1 was 0.00115 µM; on Recombinant Cat D, 569 µM; in assay [1], 0.00826 µM; on human recombinant BACE2, 0.224 µM.

Take `CNC(=O)[C@]12C[C@H]1[C@@](C)(c1cc(NC(=O)c3cnc(OCC(F)(F)F)cn3)cc(F)c1F)N=C(N)S2` [Example 701, (1S,5S,6S)-3-amino-5-(2,3-difluoro-5-(((5-(2,2,2-trifluoroethoxy)-2-pyrazinyl)carbonyl)amino)phenyl)-N,5-dimethyl-2-thia-4-azabicyclo[4.1.0]hept-3-ene-1-carboxamide]: the IC50 on human recombinant BACE1 amounted to 0.000943 µM; on Recombinant Cat D, 587 µM; in assay [1], 0.00309 µM; on human recombinant BACE2, 0.0782 µM.

With `CNC(=O)[C@]12C[C@H]1[C@@](C)(c1cc(NC(=O)c3ncc(OCC(F)(F)F)cc3C)cc(F)c1F)N=C(N)S2` [Example 702, (1S,5S,6S)-3-amino-5-(2,3-difluoro-5-(((3-methyl-5-(2,2,2-trifluoroethoxy)-2-pyridinyl)carbonyl)amino)phenyl)-N,5-dimethyl-2-thia-4-azabicyclo[4.1.0]hept-3-ene-1-carboxamide], the IC50 came to 0.000986 µM at human recombinant BACE1, 362 µM at Recombinant Cat D, 0.0344 µM in assay [1] and 0.269 µM on human recombinant BACE2.

Consider `C[C@]1(c2cc(Nc3ncnc4cc(C#N)cnc34)ccc2F)N=C(N)S[C@]2(CO)[C@H]1C2(F)F` [Example 703, 4-((3-((1S,5S,6R)-3-amino-7,7-difluoro-1-(hydroxymethyl)-5-methyl-2-thia-4-azabicyclo[4.1.0]hept-3-en-5-yl)-4-fluorophenyl)amino)pyrido[3,2-d]pyrimidine-7-carbonitrile], for which the IC50 at human recombinant BACE1 amounted to 0.00594 µM; on Recombinant Cat D it was 340 µM; in assay [1], 0.0153 µM; at human recombinant BACE2, 0.011 µM.

Turning to `C[C@]1(c2cc(NC(=O)c3ccc(Cl)cn3)ccc2F)N=C(N)S[C@]2(CO)[C@H]1C2(F)F` [Example 704, N-(3-((1S,5S,6R)-3-amino-7,7-difluoro-1-(hydroxymethyl)-5-methyl-2-thia-4-azabicyclo[4.1.0]hept-3-en-5-yl)-4-fluorophenyl)-5-chloro-2-pyridinecarboxamide], the IC50 at human recombinant BACE1 was 0.002 µM; at Recombinant Cat D, 141 µM; in assay [1] it was 0.00557 µM; on human recombinant BACE2, under 0.00203 µM.

In the case of `C[C@]1(c2cc(Nc3nccc4nc(OCc5cocn5)cnc34)ccc2F)N=C(N)S[C@]2(CO)[C@H]1C2(F)F` [Example 706, ((1S,5S,6R)-3-amino-7,7-difluoro-5-(2-fluoro-5-((2-(1,3-oxazol-4-ylmethoxy)pyrido[3,4-b]pyrazin-5-yl)amino)phenyl)-5-methyl-2-thia-4-azabicyclo[4.1.0]hept-3-en-1-yl)methanol], the IC50 on human recombinant BACE1 was 0.00292 µM; at Recombinant Cat D it was 354 µM; in assay [1], 0.0086 µM; at human recombinant BACE2, 0.0294 µM.

In the case of `COC[C@@]12SC(N)=N[C@](C)(c3cc(Nc4ncnc5cc(C#N)cnc45)ccc3F)[C@@H]1C2(F)F` [Example 709, 4-((3-((1S,5S,6R)-3-amino-7,7-difluoro-1-(methoxymethyl)-5-methyl-2-thia-4-azabicyclo[4.1.0]hept-3-en-5-yl)-4-fluorophenyl)amino)pyrido[3,2-d]pyrimidine-7-carbonitrile], the IC50 at human recombinant BACE1 stood at 0.0092 µM; on Recombinant Cat D, 148 µM; in assay [1], 0.104 µM; at human recombinant BACE2, 0.0257 µM.

Turning to `COC[C@@]12SC(N)=N[C@](C)(c3cc(NC(=O)c4ccc(Cl)cn4)ccc3F)[C@@H]1C2(F)F` [Example 710, N-(3-((1S,5S,6R)-3-amino-7,7-difluoro-1-(methoxymethyl)-5-methyl-2-thia-4-azabicyclo[4.1.0]hept-3-en-5-yl)-4-fluorophenyl)-5-chloro-2-pyridinecarboxamide], the IC50 was 0.00599 µM on human recombinant BACE1, 379 µM on Recombinant Cat D, 0.055 µM in assay [1] and under 0.00203 µM at human recombinant BACE2.

Take `CC(C)(O)[C@@]12SC(N)=N[C@](C)(c3cc(NC(=O)c4ccc(Cl)cn4)ccc3F)[C@@H]1C2(F)F` [Example 711, N-(3-((1S,5S,6R)-3-amino-7,7-difluoro-1-(1-hydroxy-1-methylethyl)-5-methyl-2-thia-4-azabicyclo[4.1.0]hept-3-en-5-yl)-4-fluorophenyl)-5-chloro-2-pyridinecarboxamide]: the IC50 was 0.00311 µM at human recombinant BACE1, 753 µM on Recombinant Cat D, 0.014 µM in assay [1] and under 0.00203 µM at human recombinant BACE2.

Consider `C#CCOc1cnc2c(Nc3ccc(F)c([C@@]4(C)N=C(N)S[C@]5([C@@H](C)O)[C@H]4C5(F)F)c3)nccc2n1` [Example 713, (1R)-1-((1S,5S,6R)-3-amino-7,7-difluoro-5-(2-fluoro-5-((2-(2-propyn-1-yloxy)pyrido[3,4-b]pyrazin-5-yl)amino)phenyl)-5-methyl-2-thia-4-azabicyclo[4.1.0]hept-3-en-1-yl)ethanol], for which the IC50 at human recombinant BACE1 is 0.000864 µM; at Recombinant Cat D it was 547 µM; in assay [1], 0.00543 µM; on human recombinant BACE2, 0.00394 µM.

Turning to `C#CCOc1cnc2c(Nc3ccc(F)c([C@@]4(C)N=C(N)S[C@]5([C@H](C)O)[C@H]4C5(F)F)c3)nccc2n1` [Example 714, (1S)-1-((1S,5S,6R)-3-amino-7,7-difluoro-5-(2-fluoro-5-((2-(2-propyn-1-yloxy)pyrido[3,4-b]pyrazin-5-yl)amino)phenyl)-5-methyl-2-thia-4-azabicyclo[4.1.0]hept-3-en-1-yl)ethanol], the IC50 on human recombinant BACE1 was determined as 0.00102 µM; at Recombinant Cat D, 613 µM; in assay [1] it was 0.0109 µM; on human recombinant BACE2, 0.00913 µM.

Turning to `CCOC[C@]12C[C@H]1[C@@](CF)(c1cc(NC(=O)c3ncc(C#N)cc3C)ccc1F)N=C(N)S2` [Example 715, N-(3-((1S,5S,6S)-3-amino-1-(ethoxymethyl)-5-(fluoromethyl)-2-thia-4-azabicyclo[4.1.0]hept-3-en-5-yl)-4-fluorophenyl)-5-cyano-3-methyl-2-pyridinecarboxamide], the IC50 on human recombinant BACE1 stood at 0.00409 µM; on Recombinant Cat D, 918 µM; in assay [1] it was 0.00635 µM; on human recombinant BACE2 it was 0.00881 µM.

Turning to `COC[C@]12C[C@H]1[C@@](CF)(c1cc(NC(=O)c3ncc(C#N)cc3C)ccc1F)N=C(N)S2` [Example 716, N-(3-((1S,5S,6S)-3-amino-5-(fluoromethyl)-1-(methoxymethyl)-2-thia-4-azabicyclo[4.1.0]hept-3-en-5-yl)-4-fluorophenyl)-5-cyano-3-methyl-2-pyridinecarboxamide], the IC50 is 0.00216 µM on human recombinant BACE1, 2290 µM at Recombinant Cat D, 0.00431 µM in assay [1] and 0.00196 µM on human recombinant BACE2.

As for `COC[C@]12C[C@H]1[C@@](CF)(c1cc(Nc3nccc4cc(C#N)cnc34)ccc1F)N=C(N)S2` [Example 717, 8-((3-((1S,5S,6S)-3-amino-5-(fluoromethyl)-1-(methoxymethyl)-2-thia-4-azabicyclo[4.1.0]hept-3-en-5-yl)-4-fluorophenyl)amino)-1,7-naphthyridine-3-carbonitrile], the IC50 was 0.0072 µM on human recombinant BACE1, over 400 µM on Recombinant Cat D, 0.0239 µM in assay [1] and 0.00332 µM on human recombinant BACE2.

The record behind these values is patent publication US20160046618A1, “Cyclopropyl Fused Thiazin-2-Amine Compounds as Beta-Secretase Inhibitors and Methods of Use” (AMGEN INC., priority 2014, published 2016).
